Laboratory results as given in US11534457B2, “Use of dextran sulfate” (priority 2017, dated 2022).
“Also recorded” adds a separate entry of the source.

Legend:
[1] = tested on: closed-head diffuse severe TBI (sTBI); assay: sTBI in rats, dose study, HPLC of free amino acids and amino group containing compounds (Example 7); type: in vivo, Male Wistar rats
[2] = tested on: human primary cell-based systems; assay: BioMAP Diversity PLUS panel (whole panel, profile and similarity analysis)
Text: In this study LMW-DS was characterized by profiling in the BioMAP® Diversity PLUS panel. The BioMAP® panel consists of human primary cell-based systems designed to model different aspects of the human body in an in vitro format. The 12 systems in the BioMAP® Diversity PLUS panel (Table 32) allow test agent characterization in an unbiased way across a broad set of systems modeling various human disease states. The BioMA®P systems are constructed with one or more primary cell types from healthy human donors, with stimuli, such as cytokines or growth factors, added to capture relevant signaling networks that naturally occur in human tissue or pathological conditions. Vascular biology is modeled in both a Th1 (3C system) and a Th2 (4H system) inflammatory environment, as well as in a Th1 inflammatory state specific to arterial smooth muscle cells (CASM3C system). Additional systems recapitulate aspects of the systemic immune response including monocyte-driven Th1 inflammation (LPS system) or T cell stimulation (SAg system), chronic Th1 inflammation driven by macrophage activation (IMphg system) and the T cell-dependent activation of B cells that occurs in germinal centers (BT system). The BE3C system (Th1) and the BF4T system (Th2) represent airway inflammation of the lung, while the MyoF system models myofibroblast-lung tissue remodeling. Lastly, skin biology is addressed in the KF3CT system modeling Th1 cutaneous inflammation and the HDF3CGF system modeling wound healing.
Each test agent generates a signature BioMAP® profile that is created from the changes in protein biomarker readouts within individual system environments. Biomarker readouts (7-17 per system) are selected for therapeutic and biological relevance, are predictive for disease outcomes or specific drug effects and are validated using agents with known mechanism of action (MoA). Each readout is measured quantitatively by immune-based methods that detect protein, e.g., ELISA, or functional assays that measure proliferation and viability. BioMAP® readouts are diverse and include cell surface receptors, cytokines, chemokines, matrix molecules and enzymes. In total, the BioMAP® Diversity PLUS panel contains 148 biomarker readouts that capture biological changes that occur within the physiological context of the particular BioMAP® system.
Four concentrations of LMW-DS (150 nM, 440 nM, 1.3 μM, 4 μM) were investigated in the BioMAP® Diversity PLUS panel by Eurofins.
Human primary cells in BioMAP systems are used at early passage (passage 4 or earlier) to minimize adaptation to cell culture conditions and preserve physiological signaling responses. All cells are from a pool of multiple donors (n=2-6), commercially purchased and handled according to the recommendations of the manufacturers. Human blood derived CD14^+ monocytes are differentiated into macrophages in vitro before being added to the /Mphg system. Abbreviations are used as follows: Human umbilical vein endothelial cells (HUVEC), Peripheral blood mononuclear cells (PBMC), Human neonatal dermal fibroblasts (HDFn), B cell receptor (BCR), T cell receptor (TCR) and Toll-like receptor (TLR).
Cell types and stimuli used in each system are as follows: 3C system [HUVEC+(IL-1β, TNFα and IFNγ)], 4H system [HUVEC+(IL-4 and histamine)], LPS system [PBMC and HUVEC+LPS (TLR4 ligand)], SAg system [PBMC and HUVEC+TCR ligands], BT system [CD19^+ B cells and PBMC+(a-IgM and TCR ligands)], BF4T system [bronchial epithelial cells and HDFn+(TNFα and IL-4)], BE3C system [bronchial epithelial cells+(IL-1β, TNFα and IFNγ)], CASM3C system [coronary artery smooth muscle cells+(IL-1β, TNFα and IFNγ)], HDF3CGF system [HDFn+(IL-1β, TNFα, IFNγ, EGF, bFGF and PDGF-BB)], KF3CT system [keratinocytes and HDFn+(IL-1β, TNFα, IFNγ and TGFβ)], MyoF system [differentiated lung myofibroblasts+(TNFα and TGFβ)] and /Mphg system [HUVEC and M1 macrophages+Zymosan (TLR2 ligand)].
Systems are derived from either single cell types or co-culture systems. […]

[3] = 1 mg/kg s.c. single, 30 min post-sTBI, sacrifice 2 days
[4] = 5 mg/kg s.c. single, 30 min post-sTBI, sacrifice 2 days
[5] = 15 mg/kg s.c. single, 30 min post-sTBI, sacrifice 2 days
[6] = rats, 7 days post-sTBI, repeated administration of 15 mg/kg b.w.
[7] = rats, 7 days post-sTBI, single administration of 1 mg/kg b.w.
[8] = rats, 7 days post-sTBI, single administration of 5 mg/kg b.w.
[9] = rats, 7 days post-sTBI, single administration of 15 mg/kg b.w.

low molecular weight dextran sulfate [LMW-DS]
GLN, brain concentration [1, 3]: 4.37 ± 0.59 nmol/g w.w.
LYS, brain concentration [1, 3]: 0.29 ± 0.11 nmol/g w.w.
ORN, brain concentration [1, 3]: 0.02 ± 0.01 nmol/g w.w.
THR, brain concentration [1, 3]: 0.70 ± 0.15 nmol/g w.w.
VAL, brain concentration [1, 3]: 0.07 ± 0.03 nmol/g w.w.
ORN, brain concentration [1, 4]: 0.01 ± 0.01 nmol/g w.w.
THR, brain concentration [1, 4]: 0.77 ± 0.17 nmol/g w.w.
VAL, brain concentration [1, 4]: 0.08 ± 0.03 nmol/g w.w.
GLN, brain concentration [1, 5]: 4.21 ± 0.51 nmol/g w.w.
LEU, brain concentration [1, 5]: 0.04 ± 0.01 nmol/g w.w.
ORN, brain concentration [1, 5]: 0.02 ± 0.01 nmol/g w.w.
VAL, brain concentration [1, 5]: 0.06 ± 0.03 nmol/g w.w.
isoleucine (ILE) ([1]; 2 days post sTBI): restored
osmolyte and aromatic free amino acids ([1]; 2 days post sTBI): No remarkable effects
free amino acids involved in NO generation (ARG, CITR) ([1]; 2 days post sTBI, 15 mg/kg b.w.): particularly effective
free amino acids involved in neurotransmission ([1]; 2 days post sTBI, 5 or 15 mg/kg b.w.): partly effective
methionine ([1]; 2 days post sTBI, any dose tested): Restoration
TAU concentrations ([1]; 7 days post sTBI): normalized
aromatic amino acids ([1]; 7 days post sTBI): caused the increase
GLU ([1]; 7 days post sTBI, 15 mg/kg b.w. single or repeat): normalization
free amino acids involved in NO generation (ARG, CITR) ([1]; 7 days post sTBI, 5 or 15 mg/kg b.w. (single and repeat)): particularly effective
L-Cystathionine (L-Cystat) ([1]; 7 days post sTBI, highest dose): significant increase
MET ([1]; 7 days post sTBI, highest dose, single or repeat): Increase
ALA concentration in deproteinized brain homogenates [1, 6]: 0.47 ± 0.05 nmol/g w.w.
ASN concentration in deproteinized brain homogenates [1, 6]: 0.10 ± 0.02 nmol/g w.w.
CITR concentration in deproteinized brain homogenates [1, 6]: 0.03 ± 0.01 nmol/g w.w.
GLN concentration in deproteinized brain homogenates [1, 6]: 3.88 ± 0.4 µmol/g w.w.
HYS concentration in deproteinized brain homogenates [1, 6]: 0.06 ± 0.01 nmol/g w.w.
ILE concentration in deproteinized brain homogenates [1, 6]: 0.03 ± 0.01 nmoL/g w.w.
LEU concentration in deproteinized brain homogenates [1, 6]: 0.04 ± 0.01 nmoL/g w.w.
LYS concentration in deproteinized brain homogenates [1, 6]: 0.23 ± 0.07 nmoL/g w.w.
MET concentration in deproteinized brain homogenates [1, 6]: 0.05 ± 0.01 nmol/g w.w.
THR concentration in deproteinized brain homogenates [1, 6]: 0.77 ± 0.14 nmol/g w.w.
TYR concentration in deproteinized brain homogenates [1, 6]: 0.14 ± 0.02 nmol/g w.w.
VAL concentration in deproteinized brain homogenates [1, 6]: 0.07 ± 0.01 nmoL/g w.w.
ASN concentration in deproteinized brain homogenates [1, 7]: 0.10 ± 0.02 nmol/g w.w.
CITR concentration in deproteinized brain homogenates [1, 7]: 0.03 ± 0.01 nmol/g w.w.
GLN concentration in deproteinized brain homogenates [1, 7]: 4.1 ± 0.42 µmol/g w.w.
HYS concentration in deproteinized brain homogenates [1, 7]: 0.06 ± 0.01 nmol/g w.w.
LYS concentration in deproteinized brain homogenates [1, 7]: 0.19 ± 0.06 nmoL/g w.w.
MET concentration in deproteinized brain homogenates [1, 7]: 0.03 ± 0.01 nmol/g w.w.
TAU concentration in deproteinized brain homogenates [1, 7]: 4.02 ± 0.51 nmol/g w.w.
THR concentration in deproteinized brain homogenates [1, 7]: 0.71 ± 0.12 nmol/g w.w.
TYR concentration in deproteinized brain homogenates [1, 7]: 0.13 ± 0.02 nmol/g w.w.
ASN concentration in deproteinized brain homogenates [1, 8]: 0.10 ± 0.02 nmol/g w.w.
CITR concentration in deproteinized brain homogenates [1, 8]: 0.03 ± 0.01 nmol/g w.w.
GLN concentration in deproteinized brain homogenates [1, 8]: 3.86 ± 0.4 µmol/g w.w.
GLY concentration in deproteinized brain homogenates [1, 8]: 0.88 ± 0.15 nmol/g w.w.
HYS concentration in deproteinized brain homogenates [1, 8]: 0.06 ± 0.01 nmol/g w.w.
LYS concentration in deproteinized brain homogenates [1, 8]: 0.21 ± 0.04 nmoL/g w.w.
MET concentration in deproteinized brain homogenates [1, 8]: 0.04 ± 0.01 nmol/g w.w.
THR concentration in deproteinized brain homogenates [1, 8]: 0.71 ± 0.15 nmol/g w.w.
TRP concentration in deproteinized brain homogenates [1, 8]: 0.02 ± 0.01 nmol/g w.w.
TYR concentration in deproteinized brain homogenates [1, 8]: 0.13 ± 0.02 nmol/g w.w.
ASN concentration in deproteinized brain homogenates [1, 9]: 0.10 ± 0.02 nmol/g w.w.
CITR concentration in deproteinized brain homogenates [1, 9]: 0.03 ± 0.01 nmol/g w.w.
GLN concentration in deproteinized brain homogenates [1, 9]: 3.73 ± 0.38 µmol/g w.w.
HYS concentration in deproteinized brain homogenates [1, 9]: 0.06 ± 0.01 nmol/g w.w.
LYS concentration in deproteinized brain homogenates [1, 9]: 0.21 ±0.05 nmoL/g w.w.
MET concentration in deproteinized brain homogenates [1, 9]: 0.04 ± 0.01 nmol/g w.w.
THR concentration in deproteinized brain homogenates [1, 9]: 0.72 ± 0.14 nmol/g w.w.
TYR concentration in deproteinized brain homogenates [1, 9]: 0.14 ± 0.02 nmol/g w.w.
CD69 ([2]; 150 nM to 4 μM): increased
EGFR ([2]; 150 nM to 4 μM): increased
Eotaxin 3 (Eot3) ([2]; 150 nM to 4 μM): increased
I-TAC ([2]; 150 nM to 4 μM): decreased
IL-8 ([2]; 150 nM to 4 μM): increased
IP-10 ([2]; 150 nM to 4 μM): decreased
M-CSF ([2]; 150 nM to 4 μM): decreased
MCP-1 ([2]; 150 nM to 4 μM): decreased
MIG ([2]; 150 nM to 4 μM): decreased
MMP-1 ([2]; 150 nM to 4 μM): increased
PAI-1 ([2]; 150 nM to 4 μM): increased
VCAM-1 ([2]; 150 nM to 4 μM): decreased
cytotoxicity for human primary cells ([2]; 150 nM to 4 μM): not cytotoxic; also recorded: noncytotoxic
sTNFα ([2]; 150 nM to 4 μM): decreased
secreted immunoglobulin G (sIgG) ([2]; 150 nM to 4 μM): decreased
thrombomodulin (TM) ([2]; 150 nM to 4 μM): increased
uPAR ([2]; 150 nM to 4 μM): increased
annotated readouts in BioMAP profile ([2]; 150 nM, 440 nM, 1.3 μM, 4 μM): 25
proliferation of human primary endothelial cells ([2]; top concentration only (4 μM)): modestly and selectively antiproliferative
